Measured values taken from article PMC7287908, “N-Alkyl-2-[4-(trifluoromethyl)benzoyl]hydrazine-1-carboxamides and Their Analogues: Synthesis and Multitarget Biological Activity” (Molecules, 2020).
In brackets after ≈: the same amount, converted by molar mass. Like-named read-outs stand apart in the source and are kept apart here.

Columns and labels:
[1] = molecular target: T1, AChE from electric eel (EeAChE) (Electrophorus electricus, UniProt O42275); assay: biochemical; details: for IC50: electric eel AChE, mean ± SD, n = three independent experiments; for Selectivity BuChE/AChE (selectivity index, SI): ratio of IC50 for BuChE/IC50 for AChE
T1 construct: Acetylcholinesterase used was obtained from electric eel (Electrophorus electricus L; EeAChE); purchased Sigma-Aldrich (Prague, Czech Republic); host or cells: electric eel (natural source)
Protocol: (§1) Newly synthesized N-alkyl-2-[4-(trifluoromethyl)benzoyl]hydrazine-1-carboxamides 2a–2q were evaluated for their in vitro potency to inhibit AChE from electric eel (EeAChE) and BuChE from equine serum (EqBuChE) using modified Ellman’s spectrophotometric method. […] The efficacy of inhibitors is expressed as IC50, i.e., the concentration causing 50% inhibition of the enzyme activity. Based on IC50 values for both enzymes, selectivity indexes (SI) as the ratio of IC50 for BuChE/IC50 for AChE to quantify the preference for AChE were calculated (Table 1).
(§2) IC50 values were determined using the spectrophotometric Ellman’s method modified according to Zdražilová et al., which is a simple, rapid and direct method to determine the SH and -S-S- group content. This method is widely used for the screening of the efficiency of cholinesterases inhibitors. The enzymatic activity is measured indirectly by quantifying the concentration of the 5-thio-2-nitrobenzoic acid ion formed in the reaction between the thiol reagent 5,5′-dithio-bis(2-nitrobenzoic acid) and thiocholine, a product of acetylthiocholine substrate hydrolysis by cholinesterases.
(§3) The enzyme activity in final reaction mixture (2000 µL) was 0.2 U/mL, concentration of acetylthiocholine (or butyrylthiocholine) 40 µM and concentration of 5,5′-dithio-bis(2-nitrobenzoic acid) 0.1 mM for all reactions. The tested compounds were dissolved in DMSO and then diluted in demineralized water to the concentration of 1 mM. […] All measurements were carried in triplicates and the average values of reaction rate (v0-uninhibited reaction, vi-inhibited reaction) were used for construction of the dependence v0/vi vs. concentration of inhibitor. From obtained equation of regression curve, IC50 values were calculated.
(§4) Acetylcholinesterase used was obtained from electric eel (Electrophorus electricus L.; EeAChE) and butyrylcholinesterase from equine serum (EqBuChE).

[2] = molecular target: T2, BuChE from equine serum (EqBuChE) (Equus caballus, UniProt P81908); assay: biochemical; details: mean ± SD, n = three independent experiments
T2 construct: butyrylcholinesterase from equine serum (EqBuChE); purchased Sigma-Aldrich (Prague, Czech Republic); host or cells: equine serum (natural source)
Protocol: as §1, §2, §3, §4

[3] = tested on: Mycobacterium tuberculosis 331/88 (H37Rv); assay: In vitro antimycobacterial activity (MIC); format: cell-based; details: read-out: MIC M. tuberculosis
[4] = tested on: M. kansasii 235/80 and M. kansasii 6509/96; assay: In vitro antimycobacterial activity (MIC); format: cell-based; details: Mycobacterium kansasii, read-out: MIC M. kansasii
[5] = tested on: M. tuberculosis 331/88, M. avium 330/88, M. kansasii 235/80, M. kansasii 6509/96; assay: In vitro antimycobacterial activity (MIC), whole panel, strain not specified; format: cell-based; details: panel of four mycobacterial strains; read-out: MIC (mycobacteria, strain not specified)
HepG2 cells = assay: Cytostatic activity, MTT assay; format: cell-based, human; details: HepG2, at a concentration of 100 µM
Protocol: (§5) Since compounds containing trifluoromethyl group has been known for their toxic action on eukaryotic cells and approved as anticancer drugs, we investigated cytostatic properties of the derivatives 2–4 using human hepatocellular carcinoma (HepG2) and monocyte (MonoMac6) cell lines. […] The remaining compounds have no cytostatic effect up to 50 µM. Higher concentrations were not investigated due to solubility problems, i.e., precipitation of crystals. […]
(§6) The cell viability was determined by 3-(4,5-dimethylthiazol-2-yl)-2,5-diphenyltetrazolium bromide (MTT) assay. […] The obtained formazan crystals were dissolved in 100 μL of DMSO and the optical density (OD) of the samples was measured at λ = 540 and 620 nm, respectively, employing an ELISA reader (iEMS Reader, Labsystems, Helsinki, Finland). OD620 values were subtracted from OD540 values and the percent of cytostasis was calculated using the following equation:Cytostatic effect (%) = [1 − (ODtreated/ODcontrol)] × 100 where ODtreated and ODcontrol correspond to the optical densities of the treated and the control cells, respectively). […]

MonoMac6 cells = assay: Cytostatic activity, MTT assay; format: cell-based, human; details: MonoMac6, at a concentration of 100 µM
Protocol: as §5, §6

T1 sequence (O42275 24-633): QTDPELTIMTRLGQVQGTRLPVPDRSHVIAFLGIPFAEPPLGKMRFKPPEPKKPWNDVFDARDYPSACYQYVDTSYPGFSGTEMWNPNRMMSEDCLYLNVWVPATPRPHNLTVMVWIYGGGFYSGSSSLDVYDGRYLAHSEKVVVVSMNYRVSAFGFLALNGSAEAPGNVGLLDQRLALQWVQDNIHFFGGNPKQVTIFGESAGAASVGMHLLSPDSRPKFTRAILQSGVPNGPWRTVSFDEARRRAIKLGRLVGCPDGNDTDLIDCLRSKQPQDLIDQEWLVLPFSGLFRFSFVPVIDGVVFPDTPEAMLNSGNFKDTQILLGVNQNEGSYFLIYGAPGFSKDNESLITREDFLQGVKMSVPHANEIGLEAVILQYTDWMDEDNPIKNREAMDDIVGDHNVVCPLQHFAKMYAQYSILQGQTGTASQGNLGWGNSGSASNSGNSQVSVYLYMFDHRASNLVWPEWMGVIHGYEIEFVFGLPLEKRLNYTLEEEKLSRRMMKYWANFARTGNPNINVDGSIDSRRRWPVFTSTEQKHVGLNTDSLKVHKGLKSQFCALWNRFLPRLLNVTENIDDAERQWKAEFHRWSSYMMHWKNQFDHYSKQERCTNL
T2 sequence (P81908 whole entry): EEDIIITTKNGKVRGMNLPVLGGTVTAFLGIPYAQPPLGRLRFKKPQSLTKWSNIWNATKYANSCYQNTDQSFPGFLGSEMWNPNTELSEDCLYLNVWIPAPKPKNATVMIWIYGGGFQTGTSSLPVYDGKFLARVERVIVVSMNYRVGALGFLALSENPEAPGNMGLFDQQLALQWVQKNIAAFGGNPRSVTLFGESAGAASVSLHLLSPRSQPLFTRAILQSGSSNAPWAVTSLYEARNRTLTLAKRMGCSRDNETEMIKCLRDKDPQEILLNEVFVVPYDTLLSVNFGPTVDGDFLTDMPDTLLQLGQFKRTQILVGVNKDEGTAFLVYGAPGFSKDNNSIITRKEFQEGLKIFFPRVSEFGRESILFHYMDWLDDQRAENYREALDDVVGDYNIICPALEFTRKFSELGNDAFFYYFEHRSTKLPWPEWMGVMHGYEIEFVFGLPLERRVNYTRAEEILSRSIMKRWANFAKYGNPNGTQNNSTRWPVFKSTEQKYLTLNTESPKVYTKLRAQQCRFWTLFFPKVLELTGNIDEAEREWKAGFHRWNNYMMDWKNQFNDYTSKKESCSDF

| Structure (SMILES) | IC50 ([1]; read-out: IC50 AChE) [µM] | Selectivity BuChE/AChE (selectivity index, SI) [1] | IC50 ([2]; read-out: IC50 BuChE) [µM] | other results |
| --- | --- | --- | --- | --- |
| CCCCCCCCCNC(=O)NNC(=O)c1ccc(C(F)(F)F)cc1 [2i, N-Nonyl-2-[4-(trifluoromethyl)benzoyl]hydrazine-1-carboxamide] | 107 | 0.8 | 82.2 ± 3.42 |  |
| CCCCCCCCCCCCNC(=O)NNC(=O)c1ccc(C(F)(F)F)cc1 [2l, N-Dodecyl-2-[4-(trifluoromethyl)benzoyl]hydrazine-1-carboxamide] | 45.2 ± 0.69 | 5.8 | 264.14 ± 0.22 |  |
| CCCCNC(=O)NNC(=O)c1ccc(C(F)(F)F)cc1 [2d, N-Butyl-2-[4-(trifluoromethyl)benzoyl]hydrazine-1-carboxamide] | 38.6 ± 1.32 | 2.3 | 87.8 ± 7.96 |  |
| CCCCCC(=O)NNC(=O)c1ccc(C(F)(F)F)cc1 [3a, N′-Hexanoyl-4-(trifluoromethyl)benzohydrazide] | 67.1 ± 3.05 | 1.6 | 110 ± 0.2 | MIC ([3]; H37RV): 125 µM (≈ 37.8 µg/mL); MIC [4]: > 250 µM |
| CCCCCCCCCCCCCCCCNC(=O)NNC(=O)c1ccc(C(F)(F)F)cc1 [2p, N-Hexadecyl-2-[4-(trifluoromethyl)benzoyl]hydrazine-1-carboxamide] | 68.63 ± 0.56 | 2.7 | 187 ± 13.2 |  |
| CCCCCCCCCCCCCCCCCCNC(=O)NNC(=O)c1ccc(C(F)(F)F)cc1 [2q, N-Octadecyl-2-[4-(trifluoromethyl)benzoyl]hydrazine-1-carboxamide] | 72.3 ± 2.01 | 2.0 | 146 ± 2.6 |  |
| CCCCCNC(=O)NNC(=O)c1ccc(C(F)(F)F)cc1 [2e, N-Pentyl-2-[4-(trifluoromethyl)benzoyl]hydrazine-1-carboxamide] | 43.59 ± 0.41 | 1.3 | 58 |  |
| CCNC(=O)NNC(=O)c1ccc(C(F)(F)F)cc1 [2b, N-Ethyl-2-[4-(trifluoromethyl)benzoyl]hydrazine-1-carboxamide] | 56.32 ± 0.54 | 1.8 | 103 ± 2.75 | MIC ([3]; H37RV): 1000 µM (≈ 275 µg/mL); MIC [4]: 1000 µM (≈ 275 µg/mL) |
| CCCCCCCCCCCCCCNC(=O)NNC(=O)c1ccc(C(F)(F)F)cc1 [2n, N-Tetradecyl-2-[4-(trifluoromethyl)benzoyl]hydrazine-1-carboxamide] | 38.7 ± 1.14 | 6.8 | 262 ± 17.2 |  |
| CCCCCCCCCCCCCCCC(=O)NNC(=O)c1ccc(C(F)(F)F)cc1 [3b, N′-Palmitoyl-4-(trifluoromethyl)benzohydrazide] | 91.9 ± 6.79 | 1.6 | 148.6 ± 0.36 |  |
| NNC(=O)c1ccncc1 [isoniazid, isonicotinoylhydrazide, reference compound] |  |  |  | MIC ([3]; M. tuberculosis 331/88 (H37Rv)): 1 µM (≈ 0.137 µg/mL) |
| CCCCCCCNC(=O)NNC(=O)c1ccc(C(F)(F)F)cc1 [2g, N-Heptyl-2-[4-(trifluoromethyl)benzoyl]hydrazine-1-carboxamide] | 59.2 ± 2.38 | 1.3 | 79.3 ± 1.53 |  |
| CCCNC(=O)NNC(=O)c1ccc(C(F)(F)F)cc1 [2c, N-Propyl-2-[4-(trifluoromethyl)benzoyl]hydrazine-1-carboxamide] | 82.3 ± 3.31 |  | 112.7 ± 0.98 |  |
| CCCCCCNc1nnc(-c2ccc(C(F)(F)F)cc2)o1 [compound 4, N-Hexyl-5-[4-(trifluoromethyl)phenyl]-1,3,4-oxadiazol-2-amine] | 71.32 ± 0.63 | 1.7 | 118 ± 1.46 | MIC ([3]; H37RV): 125 to 250 µM (≈ 39.2 to 78.3 µg/mL); MIC [4]: 62.5 to 250 µM (≈ 19.6 to 78.3 µg/mL); MIC [5]: ≥ 62.5 µM |
| CCCCCCCCCCCNC(=O)NNC(=O)c1ccc(C(F)(F)F)cc1 [2k, 2-[4-(Trifluoromethyl)benzoyl]-N-undecylhydrazine-1-carboxamide] | 40.71 ± 0.37 | 4.4 | 179 ± 2.96 |  |
| CCCCCCCCCCCCCCCNC(=O)NNC(=O)c1ccc(C(F)(F)F)cc1 [2o, N-Pentadecyl-2-[4-(trifluoromethyl)benzoyl]hydrazine-1-carboxamide] | 27 | 8.6 | 233 ± 15.7 |  |
| NNC(=O)c1ccc(C(F)(F)F)cc1 [compound 1, 4-(Trifluoromethyl)benzohydrazide] |  |  |  | IC50 ([2]; IC50 BuChE): 204 ± 2.69 µM; cytostatic action (HepG2 cells): avoided any cytostatic action; cytostatic action (MonoMac6 cells): avoided any cytostatic action |
| CCCCCCCCCCCCCNC(=O)NNC(=O)c1ccc(C(F)(F)F)cc1 [2m, N-Tridecyl-2-[4-(trifluoromethyl)benzoyl]hydrazine-1-carboxamide] |  | 9.6 | 277 ± 10.3 | IC50 ([1]; IC50 AChE): 28.9 ± 0.67 µM; IC50 ([2]; IC50 BuChE): 278 µM |
| CCCCCCNC(=O)NNC(=O)c1ccc(C(F)(F)F)cc1 [2f, N-Hexyl-2-[4-(trifluoromethyl)benzoyl]hydrazine-1-carboxamide] | 49.2 ± 2.36 | 1.5 | 72.5 ± 1.51 | MIC ([3]; H37RV): 250 µM (≈ 82.8 µg/mL); MIC [4]: 250 µM (≈ 82.8 µg/mL) |
| CCCCCCCCNC(=O)NNC(=O)c1ccc(C(F)(F)F)cc1 [2h, N-Octyl-2-[4-(trifluoromethyl)benzoyl]hydrazine-1-carboxamide] | 77 ± 4.75 | 1.3 | 101.3 ± 0.99 |  |
| CCCCCCCCCCNC(=O)NNC(=O)c1ccc(C(F)(F)F)cc1 [2j, N-Decyl-2-[4-(trifluoromethyl)benzoyl]hydrazine-1-carboxamide] | 49.5 ± 1.74 | 3.9 | 192 ± 6.83 |  |
| CNC(=O)NNC(=O)c1ccc(C(F)(F)F)cc1 [2a, N-Methyl-2-[4-(trifluoromethyl)benzoyl]hydrazine-1-carboxamide] |  | 2.7 |  | IC50 ([1]; IC50 AChE): 31.2 ± 1.87 µM; IC50 ([2]; IC50 BuChE): 84.2 ± 2.1 µM; MIC ([3]; H37RV): 1000 µM (≈ 261 µg/mL); MIC [4]: 1000 µM (≈ 261 µg/mL) |
